Laboratory results as given in US20230103444A1 (The Regents of the University of Colorado, a Body Corporate, priority 2020, published 2023).
Values joined by “and” are separate entries in the source; they are usually repeats but may differ in a detail not shown here. Equal entries are not always repeated. “Also recorded” adds a separate entry of the source.

Tests used:
SW620 cells = assay: Annexin V-FITC apoptosis assay; type: cell-based, human; details: 12 h, compared to DMSO; positive control SN-38
Method: SW620 cells were plated at 30,000 cells/well in 96-well plates. […] Cells were then rinsed 2× with cold PBS, 1× with cold Annexin-V staining buffer (10 mM HEPES, pH 7.4, 140 mM NaCl, 2.5 mM CaCl2), and then incubated with Annexin-V FITC at 1:100 for 30 min in the dark. Cells were then rinsed 2× with Annexin-V staining buffer and FITC intensity was measured using an EnVision® plate reader (PerkinElmer, Hopkinton, Mass.).

[1] = Liver toxicity, histological evaluation; type: in vivo, athymic nude mice; parameters: key to Liver Inflammation score: 0 = none; 1 = minimal; 2 = mild; 3 = moderate; 4 = severe; key to Liver Assessment: N = normal background lesion for mouse strain; A = abnormal; details: for liver toxicity, in words: 50 mg/kg i.p. QD 5 days
Method: Two million VimPro-GFP SW620 cells suspended in 100 μL of a 1:1 mixture of Matrigel® matrix (Corning Life Sciences, Corning, N.Y.) and RPMI 1640 were injected into the flanks of 9-week old female athymic nude mice (Nude-Foxn1nu (069)) (Envigo, Huntingdon, Cambridgeshire, UK). Growth was monitored with caliper measurements 3× per week. […] Treatments were administered i.p. QD over five days. Mice were sacrificed 2 h after the final dose on day five of the treatment.

[2] = test system: CRC102 patient-derived tumor organoids; assay: Patient tumor organoid cytotoxicity; type: cell-based; details: Homo sapiens; single agent, Table 4A
Method: Patient Cell Tumor Organoid Culture. CRC048 and CRC102 patient cell samples were expanded and cultured as PDTOs using reported methodologies and reagents. (Drost et al., 2016; Sato et al., 2011) Briefly, patient cells were washed with PBS, digested with TrypLE, and filtered through 100 μm cell strainer before used in 3D cell culture. Patient cells were seeded at 5,000 cells per well in 96-well plates, coated with 2% Matrigel, and allowed to self-assemble as PDTOs over 72 h.
Tumor Organoid Cytotoxicity.

TCF-transcription = assay: TOPflash TCF-transcriptional reporter assay; type: cell-based, human; details: TOPflash reporter in CRC cell lines (SW620, HCT116, DLD1CHD1L-OE), 24 h; listed as 8
Method: TOPflash assay (Millipore, Billerica, Mass.) was used to evaluate TCF transcriptional activity in CRC cells. A total of 20,000 cells per well were plated into 96-well white plates and transfected with TransIT®-LT1 transfection reagent (Mirus, Madison, Wis.). Cells were incubated with transfection mix for 24 h. Next, cells were washed with phosphate-buffered solution (PBS) and a 1:1 ratio of PBS:ONE-Glo™ luciferase reagent Promega (Madison, Wis.) was added and the luminescence was detected within 10 min. A duplicate experiment was conducted to measure cell viability using CellTiter-Glo® Luminescent Cell Viability Assay (Promega, Madison, Wis.), which was used to normalize TOPflash luminescence to obtain the fold change in TCF activity. Experiments were replicated 2× (n=3 for each experiment).
TCF-transcriptional Reporter Assay. […] Afterwards, cells from the white solid bottom plate were carefully washed with PBS and a 1:1 ratio of PBS:One-Glo Luciferase Assay System (Promega) was added, incubated for 10 min, and luminescence was quantified on Envision plate reader (PerkinElmer) for TCF-activity. As a control, cells from the clear plate were lysed with Mammalian Cell Lysis Buffer (Promega) and the total protein from each well was quantified with BCA assay (ThermoFisher).

Row | SMILES | apoptosis (annexin-V staining) (SW620 cells) | Liver Assessment ([1]; 50 mg/kg QD 5 days, one line per animal, listed as Compound 6.0) | Liver Inflammation score ([1]; 50 mg/kg QD 5 days, one line per animal, scored if abnormal) | liver toxicity, in words [1] | liver toxicity, in words ([1]; listed as 6.0) | IC50 [2] | inhibition of TCF-transcription, in words (TCF-transcription)
1 | Cc1cc(Nc2ccc(NC(=O)Cc3cccs3)cc2)nc(N2CCCC2)n1 [Compound 6, N-(4-((6-methyl-2-(pyrrolidin-1-yl)pyrimidin-4-yl)amino)phenyl)-2-(thiophen-2-yl)acetamide] | induced significant apoptosis | N (2×) and A (2×) | 1 | no evidence of hepatocyte degeneration, necrosis, hyperplasia, or parenchymal inflammation | no apparent liver toxicity; also recorded: does not display any liver toxicity | 22.6 µM | 
2 | Cc1cc(Nc2ccc(NC(=O)c3c[nH]c4ccccc34)cc2)nc(N2CCCC2)n1 [Compound 6.3, N-(4-((6-methyl-2-(pyrrolidin-1-yl)pyrimidin-4-yl)amino)phenyl)-1H-indole-3-carboxamide] |  |  |  |  |  |  | potent low μM dose-dependent inhibition; also recorded: more potent dose dependent inhibition
